# Measurements: US20100190856A1, “Novel Polyhydroxylated Compounds as Fatty Acid Synthase (FASN) Inhibitors” (UNIVERSIDAD COMPLUTENSE DE MADRID, priority 2007, published 2010)
# Entries after “also recorded” stand apart in the source; their conditions may differ.
# Key:
# [1] = tested on: MCF-7 breast cancer cells; experiment: MTT cytotoxicity assay, MCF-7 breast cancer cells; type: cell-based, human; details: Homo sapiens, MCF7, MCF-7 cells, 48 h, read-out: IC50, growth inhibition, MCF-7
# [2] = tested on: MDA-MB-231 breast cancer cells; experiment: MTT cytotoxicity assay, MDA-MB-231 breast cancer cells; type: cell-based, human; details: Homo sapiens, MDA-MB-231 cells, 48 h, read-out: IC50, growth inhibition, MDA-MB-231
# [3] = tested on: Non-malignant fibroblasts N-1; experiment: MTT cytotoxicity assay, non-malignant fibroblasts N-1; type: cell-based; details: for IC50: Fibroblast, non-malignant fibroblasts, MTT, 48 h, read-out: IC50, growth inhibition, Fibroblasts; for effect on non-malignant cells / normal fibroblasts: at concentrations similar to IC50; for effects in cell death / morphology changes in non-malignant cells: up to doses three-fold their cytotoxic IC50 value in tumoral cells
# rat CPT-1 = molecular target: T1, rat CPT-1 (Rattus norvegicus, UniProt Q63704); experiment: Carnitine palmitoyltransferase 1 (CPT-1) assay, yeast mitochondria; type: biochemical; parameters: % CPT-1 activity: concentration or dose not given beside the values; details: for % CPT-1 activity: % of DMSO control, mitochondria of P. pastoris expressing rat CPT-1
# T1 construct: made in house; host or cells: Pichia pastoris GS115 (isolated intact mitochondria)
# T1 sequence (Q63704 1-772): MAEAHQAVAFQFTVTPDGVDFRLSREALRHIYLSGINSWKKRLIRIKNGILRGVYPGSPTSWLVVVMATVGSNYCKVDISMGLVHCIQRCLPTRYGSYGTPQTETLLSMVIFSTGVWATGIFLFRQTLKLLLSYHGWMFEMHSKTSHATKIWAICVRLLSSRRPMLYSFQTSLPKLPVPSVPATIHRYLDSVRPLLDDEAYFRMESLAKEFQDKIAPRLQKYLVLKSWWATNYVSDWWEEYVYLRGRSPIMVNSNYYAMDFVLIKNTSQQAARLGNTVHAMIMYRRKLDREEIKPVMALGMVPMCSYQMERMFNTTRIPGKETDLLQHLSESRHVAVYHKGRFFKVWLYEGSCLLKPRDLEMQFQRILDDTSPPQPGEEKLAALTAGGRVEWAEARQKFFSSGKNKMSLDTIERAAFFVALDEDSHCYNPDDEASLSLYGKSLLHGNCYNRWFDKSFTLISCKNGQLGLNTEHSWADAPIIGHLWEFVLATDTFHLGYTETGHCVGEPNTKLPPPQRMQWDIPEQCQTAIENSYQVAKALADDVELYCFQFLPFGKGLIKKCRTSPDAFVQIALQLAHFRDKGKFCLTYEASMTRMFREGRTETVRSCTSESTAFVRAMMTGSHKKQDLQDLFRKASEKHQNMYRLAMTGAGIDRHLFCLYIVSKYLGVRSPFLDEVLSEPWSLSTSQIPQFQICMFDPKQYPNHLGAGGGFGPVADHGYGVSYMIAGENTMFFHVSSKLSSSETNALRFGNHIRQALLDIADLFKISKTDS
# Text: The expression plasmid pRCPT-Iβ/pHW010 (provided by Gebre Woldegiorgis, Beaverton, Oreg. Published in Woldegiorgis G. et al. Biochem. Biophys. Res. Commun. 2004, 325, 660-4.) was linearized in the GAP gene promoter by digestion with AvrII and integrated into the GAPp locus of P. pastoris GS115 by electroporation. Histidine prototrophic transformants were selected on YND plates and grown on YND medium. Mitochondria were isolated by disrupting the yeast cells with glass beads as previously described.
# CPT activity was assayed by the forward exchange method using L-[^3H] carnitine as previously described (Nicot, C. et al., Biochem. Biophys. Res. Comm. 2004, 325, 2745-7). In a total volume of 0.5 mL, the standard enzyme assay mixture contained 0.2 mM L-[^3H]carnitine (˜5000 dpm/nmol), 80 μM palmitoyl-CoA, 20 mM HEPES (pH 7.0), 1% fatty acid-free albumin, and 40-75 mM KCl, with or without malonyl-CoA as indicated. Reactions were initiated by addition of isolated intact yeast mitochondria. The reaction was linear up to 4 min, and all incubations were done at 30° C. for 3 min. Reactions were stopped by addition of 6% perchloric acid and were then centrifuged at 2000 rpm for 7 min. The resulting pellet was suspended in water, and the product [^3H]palmitoylcarnitine was extracted with butanol at low pH. After centrifugation at 2000 rpm for 2 min, an aliquot of the butanol phase was transferred to a vial for radioactive counting.
# [4] = Weight loss in vivo (data not shown)
smiles,measurement,setting,value
"O=C(Oc1ccc(OC(=O)c2cc(O)c(O)c(O)c2)c2ccccc12)c1cc(O)c(O)c(O)c1 [i, 1,4-bis[(3,4,5-trihydroxybenzoyl)oxy]naphthalene]",IC50,[1],44.4 ± 16.3 µM
same,IC50,[2],62.5 ± 10.6 µM
same,IC50,[3],> 150 µM
same,effect on non-malignant cells / normal fibroblasts,[3],not affected
same,effects in cell death / morphology changes in non-malignant cells,[3],No significant effects
same,stimulation of CPT-1 activity (in words),rat CPT-1,did not stimulate CPT-1 activity; also recorded: without parallel stimulation of CPT-1 activity
same,% CPT-1 activity,rat CPT-1,90 ± 5%
same,weight loss in vivo,[4],without inducing weight loss in vivo
"O=C(Oc1cc(OC(=O)c2cc(O)c(O)c(O)c2)c2ccccc2c1)c1cc(O)c(O)c(O)c1 [f, 1,3-bis[(3,4,5-trihydroxybenzoyl)oxy]naphthalene]",IC50,[1],46.3 ± 18 µM
same,IC50,[2],78.7 ± 4 µM
same,IC50,[3],> 150 µM
same,effect on non-malignant cells / normal fibroblasts,[3],not affected
same,effects in cell death / morphology changes in non-malignant cells,[3],No significant effects
same,stimulation of CPT-1 activity (in words),rat CPT-1,did not stimulate CPT-1 activity; also recorded: without parallel stimulation of CPT-1 activity
same,% CPT-1 activity,rat CPT-1,89 ± 4%
same,weight loss in vivo,[4],without inducing weight loss in vivo
